Converted amounts (≈) assume the structure as drawn.
Key:
Format in all cases: cell-based
[1] = tested on: Candida albicans (C693); test: Microbroth susceptibility testing, yeast (MIC); details: strain C693
Method: (§1) Microbroth Susceptibility Testing Methods
(§2) Yeast susceptibility testing procedure followed the NCCLS document M27-A2 (Reference Method for Broth Dilution Antifungal Susceptibility Testing of Yeasts; Approved Standard-Second Edition (ISBN 1-56238-469-4). NCCLS, 940 West Valley Road, Suite 1400 Wayne, Pa. 19087-1898 USA, 2002) with the following modifications:
(§3) 1. The final test volume was 100 μl and not 200 μl as stipulated. 2. For testing Saccharomyces cerevisiae strain PM503 YPD was used in place of RPMI 1640 broth.

[2] = tested on: Candida albicans (C697); test: Microbroth susceptibility testing, yeast (MIC); details: strain C697
Method: as §1, §2, §3

[3] = tested on: Candida glabrata (C624); test: Microbroth susceptibility testing, yeast (MIC); details: Nakaseomyces glabratus; strain C624
Method: as §1, §2, §3

[4] = tested on: Saccharomyces cerevisiae (C51); test: Microbroth susceptibility testing, yeast (MIC); details: read-out: MIC Saccharomyces cerevisiae (C51)
Method: as §1, §2, §3

[5] = tested on: Aspergillus fumigatus (ND158); test: Microbroth susceptibility testing, filamentous fungi (MEC); details: strain ND158, minimum effective concentration
Method: Microbroth Susceptibility Testing Methods Filamentous fungi susceptibility testing procedure follows the NCCLS document M38-A (Reference Method for Broth Dilution Antifungal Susceptibility Testing of Filamentous Fungi; Approved Standard (ISBN 1-56238-470-8). NCCLS, 940 West Valley Road, Suite 1400 Wayne, Pa. 19087-1898 USA, 2002) with the following modifications: 1. The final test volume was 100 μl and not 200 μl as stipulated. 2. The end point used to assess the in vitro activity of glucan synthase inhibitors may require microscopic evaluation of cell morphology in the test wells (Kurtz et al., Antimicrobial Agents and Chemotherapy, 38, 1480-1489, 1994; […] et al., Antimicrobial Agents and Chemotherapy, 45, 327-330, 2001).

Structure (SMILES)	MIC [1]	MIC [2]	MIC [3]	MIC [4]	minimal effective concentration [5]
O=c1c(SCc2ccccc2)c(N2CCN(Cc3cc(O)cc(O)c3)CC2)cnn1-c1ccccc1 [compound 1]	5 to 50 µg/mL (≈ 9.99 to 99.9 µM)	5 to 50 µg/mL (≈ 9.99 to 99.9 µM)	1 to 5 µg/mL (≈ 2 to 9.99 µM)	5 to 50 µg/mL (≈ 9.99 to 99.9 µM)	5 to 50 µg/mL
Cc1cccc(CN2CCN(c3cnn(-c4ccccc4)c(=O)c3SC(C)C)CC2)c1 [compound 9]	5 to 50 µg/mL (≈ 11.5 to 115 µM)	5 to 50 µg/mL (≈ 11.5 to 115 µM)	0.5 to 1 µg/mL (≈ 1.15 to 2.3 µM)	0.5 to 1 µg/mL (≈ 1.15 to 2.3 µM)	5 to 50 µg/mL
Cc1nc[nH]c1CN1CCN(c2cnn(-c3ccccc3)c(=O)c2SCc2ccccc2)CC1 [compound 17]	5 to 50 µg/mL (≈ 10.6 to 106 µM)	5 to 50 µg/mL (≈ 10.6 to 106 µM)	5 to 50 µg/mL (≈ 10.6 to 106 µM)	5 to 50 µg/mL (≈ 10.6 to 106 µM)	5 to 50 µg/mL
COc1ccc(Sc2c(N3CCN(S(=O)(=O)c4cccs4)CC3)cnn(-c3ccccc3)c2=O)cc1 [compound 66]	5 to 50 µg/mL (≈ 9.25 to 92.5 µM)	5 to 50 µg/mL (≈ 9.25 to 92.5 µM)	0.5 to 1 µg/mL (≈ 0.925 to 1.85 µM)	1 to 5 µg/mL (≈ 1.85 to 9.25 µM)	1 to 5 µg/mL
O=c1c(SCc2ccccc2)c(N2CCN(S(=O)(=O)c3ccccc3[N+](=O)[O-])CC2)cnn1-c1ccccc1 [compound 67]	5 to 50 µg/mL (≈ 8.87 to 88.7 µM)	5 to 50 µg/mL (≈ 8.87 to 88.7 µM)	1 to 5 µg/mL (≈ 1.77 to 8.87 µM)	5 to 50 µg/mL (≈ 8.87 to 88.7 µM)	5 to 50 µg/mL
COc1ccc(Sc2c(N3CCN(S(=O)(=O)c4ccccc4)CC3)cnn(-c3ccccc3)c2=O)cc1 [compound 74]	5 to 50 µg/mL (≈ 9.35 to 93.5 µM)	1 to 5 µg/mL (≈ 1.87 to 9.35 µM)	0.5 to 1 µg/mL (≈ 0.935 to 1.87 µM)	1 to 5 µg/mL (≈ 1.87 to 9.35 µM)	1 to 5 µg/mL
CCOC(=O)C1CCCN(c2c(N3CCN(C(=O)c4c[nH]c5ccccc45)CC3)cnn(-c3ccccc3)c2=O)C1 (stereo not shown) [compound 114]	5 to 50 µg/mL (≈ 9.01 to 90.1 µM)	5 to 50 µg/mL (≈ 9.01 to 90.1 µM)	5 to 50 µg/mL (≈ 9.01 to 90.1 µM)	5 to 50 µg/mL (≈ 9.01 to 90.1 µM)	5 to 50 µg/mL
CCOC(=O)C1CCCN(c2c(N3CCN(C(=O)CSc4nccc(C)n4)CC3)cnn(-c3ccccc3)c2=O)C1 (stereo not shown) [compound 130]	5 to 50 µg/mL (≈ 8.65 to 86.5 µM)	5 to 50 µg/mL (≈ 8.65 to 86.5 µM)	1 to 5 µg/mL (≈ 1.73 to 8.65 µM)	5 to 50 µg/mL (≈ 8.65 to 86.5 µM)	5 to 50 µg/mL
CCOC(=O)C1CCCN(c2c(N3CCN(C(=O)c4ccc5[nH]cnc5c4)CC3)cnn(-c3ccccc3)c2=O)C1 (stereo not shown) [compound 136]	5 to 50 µg/mL (≈ 9 to 90 µM)	5 to 50 µg/mL (≈ 9 to 90 µM)	5 to 50 µg/mL (≈ 9 to 90 µM)	5 to 50 µg/mL (≈ 9 to 90 µM)	5 to 50 µg/mL
CCOC(=O)C1CCCN(c2c(N3CCN(S(=O)(=O)c4c(F)cccc4F)CC3)cnn(-c3ccccc3)c2=O)C1 (stereo not shown) [compound 236]	1 to 5 µg/mL (≈ 1.7 to 8.51 µM)	1 to 5 µg/mL (≈ 1.7 to 8.51 µM)	0.5 to 1 µg/mL (≈ 0.851 to 1.7 µM)	1 to 5 µg/mL (≈ 1.7 to 8.51 µM)	1 to 5 µg/mL
O=c1c(N2CCOCC2)c(N2CCN(S(=O)(=O)Cc3ccccc3)CC2)cnn1-c1ccccc1 [compound 253]	5 to 50 µg/mL (≈ 10.1 to 101 µM)	1 to 5 µg/mL (≈ 2.02 to 10.1 µM)	1 to 5 µg/mL (≈ 2.02 to 10.1 µM)	1 to 5 µg/mL (≈ 2.02 to 10.1 µM)	5 to 50 µg/mL
CC(C)OCCCNc1c(N2CCN(S(=O)(=O)Cc3ccccc3)CC2)cnn(-c2ccccc2)c1=O [compound 254]	5 to 50 µg/mL (≈ 9.51 to 95.1 µM)	5 to 50 µg/mL (≈ 9.51 to 95.1 µM)	1 to 5 µg/mL (≈ 1.9 to 9.51 µM)	1 to 5 µg/mL (≈ 1.9 to 9.51 µM)	5 to 50 µg/mL
COc1ccc(CCOc2c(N3CCN(Cc4ccccc4O)CC3)cnn(-c3ccccc3)c2=O)cc1 [compound 316]	5 to 50 µg/mL (≈ 9.75 to 97.5 µM)	5 to 50 µg/mL (≈ 9.75 to 97.5 µM)	5 to 50 µg/mL (≈ 9.75 to 97.5 µM)	0.5 to 1 µg/mL (≈ 0.975 to 1.95 µM)	1 to 5 µg/mL
O=c1c(OCc2ccccc2)c(N2CCN(Cc3c(Cl)cccc3Cl)CC2)cnn1-c1ccccc1 [compound 339]	5 to 50 µg/mL (≈ 9.59 to 95.9 µM)	1 to 5 µg/mL (≈ 1.92 to 9.59 µM)	1 to 5 µg/mL (≈ 1.92 to 9.59 µM)	1 to 5 µg/mL (≈ 1.92 to 9.59 µM)	1 to 5 µg/mL
O=c1c(OC2Cc3ccccc3C2)c(N2CCN(Cc3ccoc3)CC2)cnn1-c1ccccc1 [compound 343]	5 to 50 µg/mL (≈ 10.7 to 107 µM)	1 to 5 µg/mL (≈ 2.13 to 10.7 µM)	1 to 5 µg/mL (≈ 2.13 to 10.7 µM)	< 0.5 µg/mL	0.5 to 1 µg/mL
O=c1c(OCCC2CCCCC2)c(N2CCN(Cc3cccc(O)c3)CC2)cnn1-c1ccccc1 [compound 373]	5 to 50 µg/mL (≈ 10.2 to 102 µM)	1 to 5 µg/mL (≈ 2.05 to 10.2 µM)	1 to 5 µg/mL (≈ 2.05 to 10.2 µM)	0.5 to 1 µg/mL (≈ 1.02 to 2.05 µM)	5 to 50 µg/mL
O=c1c(OC2Cc3ccccc3C2)c(N2CCN(Cc3cccs3)CC2)cnn1-c1ccccc1 [compound 428]	5 to 50 µg/mL (≈ 10.3 to 103 µM)	1 to 5 µg/mL (≈ 2.06 to 10.3 µM)	5 to 50 µg/mL (≈ 10.3 to 103 µM)	0.5 to 1 µg/mL (≈ 1.03 to 2.06 µM)	1 to 5 µg/mL

— patent publication US20100158992A1, “PIPERAZINE-SUBSTITUTED PYRIDAZINONE DERIVATIVES USEFUL AS GLUCAN SYNTHASE INHIBITORS” (Schering Corporation, priority 2007, published 2010)
